Measurements published in PubChem BioAssay (NCI).
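These data come from cells grown in 96-well plates and exposed to compound for 48 hours at five concentrations. Abbreviation: GI50, concentration required for 50% inhibition of growth. TGI is the concentration that stops growth completely.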

How the values were obtained:
Experiment in all cases: growth of human tumour cells (NCI), 48 h
LOX IMVI melanoma = tested on: LOX IMVI melanoma
OVCAR-8 ovarian = tested on: OVCAR-8 ovarian
OVCAR-3 ovarian = tested on: OVCAR-3 ovarian
NCI/ADR-RES ovarian = tested on: NCI/ADR-RES ovarian
SW-620 colon = tested on: SW-620 colon
SF-539 CNS = tested on: SF-539 CNS
UO-31 renal = tested on: UO-31 renal
SK-OV-3 ovarian = tested on: SK-OV-3 ovarian
SK-MEL-2 melanoma = tested on: SK-MEL-2 melanoma
HCT-15 colon = tested on: HCT-15 colon

| SMILES | GI50 (LOX IMVI melanoma) | TGI (LOX IMVI melanoma) | GI50 (OVCAR-8 ovarian) | TGI (OVCAR-8 ovarian) | GI50 (OVCAR-3 ovarian) | TGI (OVCAR-3 ovarian) | GI50 (NCI/ADR-RES ovarian) | TGI (NCI/ADR-RES ovarian) | GI50 (SW-620 colon) | TGI (SW-620 colon) | GI50 (SF-539 CNS) | TGI (SF-539 CNS) | GI50 (UO-31 renal) | TGI (UO-31 renal) | GI50 (SK-OV-3 ovarian) | TGI (SK-OV-3 ovarian) | GI50 (SK-MEL-2 melanoma) | TGI (SK-MEL-2 melanoma) | GI50 (HCT-15 colon) | TGI (HCT-15 colon) |
| --- | --- | --- | --- | --- | --- | --- | --- | --- | --- | --- | --- | --- | --- | --- | --- | --- | --- | --- | --- | --- |
| CCCCNc1nc(NC(C)(C)C)nc(NC(C)(C)C)n1 | 3.39 µM | 23.6 µM | 4.74 µM | > 100 µM | 12.6 µM | > 100 µM | 3.31 µM | > 100 µM | 7.2 µM | > 100 µM | 16.9 µM | > 100 µM | 7.41 µM | > 100 µM | 19.4 µM | > 100 µM | 15.4 µM | > 100 µM | 2.97 µM | > 100 µM |
| O=C1C=C(c2c(O)ccc3ccccc23)c2ccccc2C1=O | – | 4.42 µM | – | 5.3 µM | – | 6.02 µM | – | 8.96 µM | – | 5.21 µM | – | 4.36 µM | – | 6.52 µM | – | 23.9 µM | – | 15.8 µM | – | 13.1 µM |
| CC#CC(O)(C(=O)OC1CCCN(C)C1)C1=CC=CCC1 (stereo not given) | – | > 100 µM | – | > 100 µM | – | > 100 µM | – | > 100 µM | – | > 100 µM | – | > 100 µM | – | > 100 µM | – | > 100 µM | – | > 100 µM | – | > 100 µM |
| O=[N+]([O-])c1ccc2[nH]cc(-c3c4ccsc4cc4[nH]c5ccc([N+](=O)[O-])cc5c34)c2c1 | 0.834 µM | 5.48 µM | 1.25 µM | 19.7 µM | 0.354 µM | 1.44 µM | 0.744 µM | 8.22 µM | 1.07 µM | 8.37 µM | 0.697 µM | 1.91 µM | 0.827 µM | 5.14 µM | 1.25 µM | 7.21 µM | 0.861 µM | 4.18 µM | 0.735 µM | 9.68 µM |
| CN1CCN(Cc2ccc(NC(=O)c3cncc(C#Cc4cnc(N)c5ccc(F)cc45)c3)cc2C(F)(F)F)CC1 | 1.01 µM | 4.27 µM | 2.31 µM | 7.09 µM | 2.35 µM | 7.21 µM | 3.22 µM | 10.4 µM | 1.3 µM | 4.83 µM | 2.03 µM | 6.13 µM | 1.15 µM | 4.51 µM | 1.03 µM | 3.81 µM | 0.808 µM | 2.39 µM | 1.03 µM | 4.62 µM |
| CN(C)CCNc1nc2ccccc2c2c1c1c(n2Cc2ccccc2)-c2ccccc2C1=O | 11.8 µM | 26.1 µM | 6.14 µM | 52.2 µM | 17.2 µM | 34.8 µM | 5.77 µM | 23.1 µM | 7.96 µM | 24 µM | 14 µM | 29.4 µM | 14.3 µM | 35.4 µM | 20.3 µM | 45.1 µM | 10.9 µM | 28.9 µM | 10.7 µM | 26.1 µM |
| Cc1cc(/C=C2\SC(=Nc3ccccc3)N(C3CCCC3)C2=O)c(C)n1-c1ccc(Cl)cc1 | > 100 µM | > 100 µM | > 100 µM | > 100 µM | > 100 µM | > 100 µM | > 100 µM | > 100 µM | > 100 µM | > 100 µM | > 100 µM | > 100 µM | > 100 µM | > 100 µM | > 100 µM | > 100 µM | > 100 µM | > 100 µM | > 100 µM | > 100 µM |
| Cc1cc(S(=O)(=O)Nc2nc(N)nc(N3N=CCC3C)n2)c(S)cc1Cl (stereo not given) | – | > 10 µM | – | > 10 µM | – | > 10 µM | – | > 10 µM | – | > 10 µM | – | > 10 µM | – | > 10 µM | – | > 10 µM | – | > 10 µM | – | > 10 µM |
| Nc1c(C(=O)c2ccccc2)sc2nc(-c3cccs3)ccc12 | 0.378 µM | 15.3 µM | 0.453 µM | > 100 µM | 0.0468 µM | 1.05 µM | 0.0537 µM | 1.81 µM | 0.0734 µM | 11.1 µM | 0.25 µM | 1.24 µM | 1.13 µM | 15.2 µM | 0.389 µM | 18.4 µM | 0.252 µM | 17.8 µM | 0.0552 µM | 10.4 µM |
| Oc1ccc(N=Nc2ccc(Cl)cc2)cc1 | – | 24.6 µM | – | 38.2 µM | – | 55 µM | – | 51.3 µM | – | > 100 µM | – | 36.7 µM | – | 27.7 µM | – | 47.3 µM | – | 28.4 µM | – | 32.8 µM |
| CN1CC(c2ccccc2)N(CCCCN2CC(c3ccccc3)N(C)CC2c2ccccc2)CC1c1ccccc1 (stereo not given) | – | 39.1 µM | – | > 100 µM | – | > 100 µM | – | > 100 µM | – | > 100 µM | – | > 100 µM | – | > 100 µM | – | > 100 µM | – | 81.2 µM | – | > 100 µM |
| O=C(O)C1CCc2ccc3ccccc3c2C1c1cccc2ccccc12 (stereo not given) | – | 36.3 µM | – | 52.1 µM | – | 29.8 µM | – | 57.8 µM | – | > 100 µM | – | 49.8 µM | – | 40.5 µM | – | > 100 µM | – | 38.6 µM | – | 45.9 µM |
| COc1cc([C@H](C)c2ccc3ccccc3c2)cc(OC)c1OC | 1.03 µM | > 100 µM | 0.499 µM | 65.1 µM | 0.272 µM | > 100 µM | 0.145 µM | > 100 µM | 0.0974 µM | > 100 µM | 0.297 µM | > 100 µM | 0.665 µM | > 100 µM | 0.594 µM | 61.6 µM | 0.527 µM | 65.4 µM | 0.311 µM | > 100 µM |
| CC1=CSC2=NC(c3ccc(Cl)c(Cl)c3)=CC(c3ccc(Cl)cc3)N12 (stereo not given) | > 100 µM | > 100 µM | > 100 µM | > 100 µM | > 100 µM | > 100 µM | > 100 µM | > 100 µM | > 100 µM | > 100 µM | > 100 µM | > 100 µM | > 100 µM | > 100 µM | > 100 µM | > 100 µM | > 100 µM | > 100 µM | > 100 µM | > 100 µM |
| COc1cc2c(cc1C)NC(=O)/C2=C\c1cc(OC)c(OC)c(OC)c1 | > 100 µM | > 100 µM | > 100 µM | > 100 µM | > 100 µM | > 100 µM | > 100 µM | > 100 µM | > 100 µM | > 100 µM | 48.4 µM | > 100 µM | > 100 µM | > 100 µM | 83.3 µM | > 100 µM | 34.3 µM | > 100 µM | > 100 µM | > 100 µM |
| NC(=O)c1c[se]c(C2OC(CO)C(O)C2O)n1 (stereo not given) | – | > 100 µM | – | > 100 µM | – | > 59 µM | – | > 100 µM | – | > 100 µM | – | > 71.8 µM | – | > 100 µM | – | > 100 µM | – | > 100 µM | – | > 100 µM |
| c1ccc2c(c1)[I+]c1ccccc1-2 | > 50 µM | > 50 µM | > 50 µM | > 50 µM | > 50 µM | > 50 µM | > 50 µM | > 50 µM | > 50 µM | > 50 µM | 40.6 µM | > 50 µM | > 50 µM | > 50 µM | > 50 µM | > 50 µM | > 50 µM | > 50 µM | > 50 µM | > 50 µM |
